Test results published in PubChem BioAssay (NCI).
Values joined by “and” are separate entries in the source; they are usually repeats but may differ in a detail not shown here. Equal entries are not always repeated.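 Five compound concentrations were applied to cells in 96-well plates for 48 hours; endpoints were derived by simple linear interpolation of the resulting dose-response curve. Here, GI50 denotes the concentration required for 50% inhibition of growth. At the TGI there is no net growth.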

Key:
Test in all cases: growth of human tumour cells (NCI), 48 h
[1] = tested on: SK-MEL-5 melanoma
[2] = tested on: UO-31 renal
[3] = tested on: SF-539 CNS
[4] = tested on: SK-MEL-28 melanoma
[5] = tested on: BT-549 breast
[6] = tested on: SK-MEL-2 melanoma
[7] = tested on: SNB-19 CNS
[8] = tested on: SR leukemia
[9] = tested on: DMS 273 small cell lung

Row | Structure (SMILES) | TGI [1] | TGI [2] | TGI [3] | TGI [4] | TGI [5] | TGI [6] | TGI [7] [µM] | TGI [8] | GI50 [1] | GI50 [2] | GI50 [3] | GI50 [4] | GI50 [5] | GI50 [6] [µM] | GI50 [7] [µM] | GI50 [8] | GI50 [9] [µM] | TGI [9] [µM]
1 | O=C(O)CCC(=O)c1ccc2sc3ccccc3c2c1 | > 100 µM | > 100 µM | > 100 µM | > 100 µM | > 100 µM | > 100 µM | > 100 | > 100 µM |  |  |  |  |  |  |  |  |  | 
2 | Cc1cc(C)nc(SC2=C(Nc3cc(Cl)ccc3O)C(=O)N(Cc3ccccc3)C2=O)n1 | > 160 µM | > 160 µM | > 160 µM | 148 µM | > 160 µM | > 160 µM | > 160 | 70.6 µM | 38.9 µM | 80.7 µM | > 160 µM | 42.3 µM | 63 µM | 49.5 | > 160 | 18.6 µM |  | 
3 | O=C1OC(C(O)CO)C(O)=C1O (configuration not stated) | 2910 µM and > 5600 µM | 3170 µM and 2720 µM | 3360 µM and 1830 µM | 6230 µM and > 10000 µM | 4330 µM and > 5710 µM | 4940 µM and > 3780 µM | > 10000 | 877 µM and 924 µM | 1560 µM and > 4190 µM | 1760 µM and 1380 µM | 1900 µM and 1390 µM | 2530 µM and > 10000 µM | 2190 µM and 2510 µM | 2190 | > 10000 | 349 µM and 292 µM |  | 
4 | CCC1(O)C(=O)OCc2c1cc1n(c2=O)Cc2cc3c(NC(=O)CN)cccc3nc2-1 (configuration not stated) | 4.78 µM | 4.82 µM | 0.821 µM | > 100 µM | > 26.2 µM | 41.1 µM | > 100 | 0.183 µM | 0.8 µM | 0.595 µM | 0.11 µM |  | 0.477 µM | 9.74 | 0.492 | 0.0262 µM | 0.0963 | 1.83
5 | COC(=O)c1cc2c(cc1Cl)SC1=NN(C)C(N(C)C)N1S2(=O)=O (configuration not stated) | > 100 µM | > 100 µM | > 100 µM | > 100 µM | > 100 µM | > 100 µM | > 100 | > 100 µM | > 100 µM | > 100 µM | > 100 µM | > 100 µM | > 100 µM | > 100 | > 100 | > 100 µM |  | 
6 | C=CCN1CC(=O)N2[C@@H](Cc3ccc(O)cc3F)C(=O)N(Cc3cccc(N4CC(N5CCN(CC)CC5)C4)n3)C[C@@H]2N1C(=O)NCc1ccccc1 | 0.33 µM | > 100 µM | 0.288 µM | > 100 µM | > 54.1 µM | 0.476 µM | > 100 | 1.7 µM | 0.0703 µM | 0.919 µM | 0.0317 µM | 0.0405 µM | 0.111 µM | 0.0435 | 0.0324 | 0.0292 µM |  | 
7 | COC(=O)CCCCC(=O)c1c(C)[nH]c(/C=C2\N=C(c3ccc[nH]3)C=C2OC)c1C | 1.37 µM | 1.24 µM | 2.47 µM | 2.47 µM | 1.85 µM | 1.83 µM | 3.16 | 0.313 µM | 0.357 µM | 0.334 µM | 1.15 µM | 1.17 µM | 0.418 µM | 0.456 | 1.53 | 0.029 µM |  | 
8 | OCCNC1c2cc(Cl)ccc2-c2c(Cl)cc(Cl)cc21 (configuration not stated) | > 100 µM | > 100 µM | > 100 µM | > 100 µM | > 100 µM | 45.4 µM | > 100 | 44.9 µM |  |  |  |  |  |  |  |  |  | 
9 | COC1C(O)C(CO)OC(OC2C(O)COC(OC3C(C)OC(OC4C(O[C@H]5CC[C@@]6(C)C(CC=C7[C@H]6CCC68C(=O)O[C@@](C)(CCCC(C)C)[C@H]6[C@@H](OC(C)=O)C[C@@]78C)C5(C)C)OCC(OS(=O)(=O)O)C4O)C(OC4OCC(O)C(O)C4O)C3O)C2O)C1O (some centres not stated) | 1.13 µM | 0.746 µM | 0.606 µM | 2.14 µM | 0.523 µM | 2.47 µM | 0.374 | 0.238 µM | 0.473 µM | 0.2 µM | 0.215 µM | 0.495 µM | 0.226 µM | 0.233 | 0.149 | 0.0628 µM |  | 
10 | COC(=O)c1cncc(/C=C/c2c(C)cc(O)cc2C)c1 | > 16.9 µM | > 25 µM | > 25 µM | 24.8 µM | > 25 µM | 22.1 µM | > 25 | > 25 µM | 6.78 µM | 14.5 µM | 11 µM | > 12.7 µM | > 20.1 µM | 8.31 | > 21.9 | 2.67 µM |  | 
11 | Oc1ccc(C(c2ccc(O)cc2)c2ccc(Br)cn2)cc1 | 24.5 µM | 40.7 µM | 27.6 µM | 60 µM | 0.788 µM | 21 µM | > 100 | > 86.3 µM | 11.9 µM | 6.14 µM | 5.28 µM | 21.3 µM | 0.26 µM | 1.69 | 16.1 | 26 µM |  | 
12 | O=C(/C=C/c1cccc(O)c1)c1cccc(-n2cc(-c3ccccc3)[nH]c2=O)c1 | 6.59 µM | 7.02 µM | 3.84 µM | 20.6 µM | 9.79 µM | 24.7 µM | 18.6 | > 20.1 µM | 2.41 µM | 1.99 µM | 1.97 µM | 8.07 µM | 3.57 µM | 6.23 | 6.58 | 1.51 µM |  | 
13 | C#CCNC(=O)[C@H](CC)[C@H]1CC[C@H](C)[C@H]([C@@H](C)[C@H](O)[C@H](C)C(=O)[C@H](CC)C2O[C@]3(C=CC(=O)[C@]4(CC[C@@](C)([C@H]5CC[C@](O)(CC)[C@H](C)O5)O4)O3)[C@H](C)C[C@@H]2C)O1 (some centres not stated) | 3.11 µM | 7.81 µM | 3.36 µM | 3.96 µM | 3.93 µM | 7.31 µM | 7.96 | 5.37 µM | 1.69 µM | 2.01 µM | 1.75 µM | 1.87 µM | 1.83 µM | 2.44 | 2.36 | 1.61 µM |  | 
14 | Cc1cc(N(CCCNc2ccnc3cc(Cl)ccc23)Cc2ccco2)nc(N2CCN(C)CC2)n1 | 3.17 µM | 5.33 µM | 3.23 µM | 3.41 µM | 6.05 µM | 4.21 µM | 16.9 | 5.62 µM | 1.75 µM | 2.02 µM | 1.68 µM | 1.74 µM | 2.07 µM | 1.95 | 5 | 2.08 µM |  | 
15 | CCCCC1(C)C=C/C(=C2/C(=O)O/C(=C\C(=O)O)C2=O)O1 (configuration not stated) | > 100 µM | > 100 µM | > 100 µM | > 100 µM |  | > 100 µM | > 100 | > 100 µM |  |  |  |  |  |  |  |  |  | > 100
